In US12655116B2, “Substituted isophthalic acid diamides” (Bayer Aktiengesellschaft, priority 2020, dated 2026):

Experiments:
[1] = system: ECHCG; experiment: Post-emergence herbicidal action against ECHCG; assay type: in vivo, Echinochloa crus-galli
In short: (§1)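 Percent herbicidal action is rated by eye about 3 weeks after treatment against untreated controls, where 100% means dead plants and 0% means like controls. Plants in sandy loam are sprayed on green parts at the one-leaf stage with aqueous WP or EC preparations at 600 to 800 l/ha plus 0.2% wetting agent.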

[2] = system: ABUTH; experiment: Pre-emergence herbicidal action against ABUTH; assay type: in vivo, Abutilon theophrasti; settings: for Pre-emergence action against ABUTH (herbicidal activity): 80 g/ha, scored visually after 3 weeks vs untreated controls (100% = plants have died, 0% = like control plants); for Pre-emergence action against ABUTH (herbicidal activity in percent): dosage 20 g/ha, scored visually after 3 weeks vs untreated controls, 100% = plants have died, 0% = like control plants
In short: (§2)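 Seeds sown in sandy loam, soil-covered; compound sprayed on soil surface pre-emergence. Application: WP/EC, 600–800 l/ha, 0.2% wetting agent. Readout: visual % damage at 3 weeks.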

[3] = system: VIOTR; experiment: Pre-emergence herbicidal action against VIOTR; assay type: in vivo, Viola tricolor
In short: as §2

[4] = system: SETVI; experiment: Pre-emergence herbicidal action against SETVI; assay type: in vivo, Setaria viridis
In short: as §2

[5] = system: SETVI; experiment: Post-emergence herbicidal action against SETVI; assay type: in vivo, Setaria viridis
In short: as §1

[6] = system: AMARE; experiment: Pre-emergence herbicidal action against AMARE; assay type: in vivo, Amaranthus retroflexus
In short: as §2

[7] = system: AVEFA; experiment: Pre-emergence herbicidal action against AVEFA; assay type: in vivo, Avena fatua; settings: for Pre-emergence action against AVEFA in %: 80 g/ha
In short: as §2

[8] = system: MATIN; experiment: Pre-emergence herbicidal action against MATIN; assay type: in vivo, Matricaria inodora
In short: as §2

[9] = system: ALOMY; experiment: Pre-emergence herbicidal action against ALOMY; assay type: in vivo, Alopecurus myosuroides; settings: 80 g/ha, pre-emergence, scored visually after 3 weeks vs untreated controls (100% = plants have died, 0% = like control plants)
In short: as §2

[10] = system: ABUTH; experiment: Post-emergence herbicidal action against ABUTH; assay type: in vivo, Abutilon theophrasti; settings: visual assessment about 3 weeks after treatment vs untreated controls
In short: as §1

[11] = system: AMARE; experiment: Post-emergence herbicidal action against AMARE; assay type: in vivo, Amaranthus retroflexus; settings: 20 g/ha, visual assessment about 3 weeks after treatment, 100% = plants have died, 0% = like control plants
In short: as §1

[12] = system: VERPE; experiment: Pre-emergence herbicidal action against VERPE; assay type: in vivo, Veronica persica; settings: dosage 80 g/ha
In short: as §2

[13] = system: AVEFA; experiment: Post-emergence herbicidal action against AVEFA; assay type: in vivo, Avena fatua; settings: 20 g/ha, visual assessment about 3 weeks after treatment, 100% = plants have died, 0% = like control plants
Experimental: Seeds of monocotyledonous and dicotyledonous weed and crop plants are laid out in sandy loam soil in wood-fiber pots, covered with soil and cultivated in a greenhouse under good growth conditions. 2 to 3 weeks after sowing, the test plants are treated at the one-leaf stage. The compounds of the invention, formulated in the form of wettable powders (WP) or as emulsion concentrates (EC), are then sprayed onto the green parts of the plants in the form of an aqueous suspension or emulsion at a water application rate equivalent to 600 to 800 l/ha, with addition of 0.2% wetting agent. After the test plants have been left to stand in the greenhouse under optimal growth conditions for about 3 weeks, the action of the preparations is assessed visually in comparison to untreated controls (herbicidal action in percent (%): 100% activity=the plants have died, 0% activity=like control plants). […] The tables below illustrate, in an illustrative manner, the post-emergence herbicidal action of the compounds of the invention, the herbicidal activity being stated in percent.

[14] = system: PHBPU; experiment: Post-emergence herbicidal action against PHBPU; assay type: in vivo, Pharbitis purpurea
In short: as §1

[15] = system: PHBPU; experiment: Pre-emergence herbicidal action against PHBPU; assay type: in vivo, Pharbitis purpurea
In short: as §2

[16] = system: MATIN; experiment: Post-emergence herbicidal action against MATIN; assay type: in vivo, Matricaria inodora
In short: as §1

[17] = system: VIOTR; experiment: Post-emergence herbicidal action against VIOTR; assay type: in vivo, Viola tricolor
In short: as §1

[18] = system: ECHCG; experiment: Pre-emergence herbicidal action against ECHCG; assay type: in vivo, Echinochloa crus-galli
In short: as §2

[19] = system: ALOMY; experiment: Post-emergence herbicidal action against ALOMY; assay type: in vivo, Alopecurus myosuroides; settings: dosage 20 g/ha, visual assessment about 3 weeks after treatment vs untreated controls
In short: as §1

[20] = system: VERPE; experiment: Post-emergence herbicidal action against VERPE; assay type: in vivo, Veronica persica; settings: 20 g/ha
In short: as §1

[21] = 20 g/ha, scored visually after 3 weeks vs untreated controls, 100% = plants have died, 0% = like control plants
[22] = 80 g/ha, scored visually after 3 weeks vs untreated controls (100% = plants have died, 0% = like control plants)

With `CCn1nnnc1NC(=O)c1ccc(C(F)(F)F)c(C(=O)NCC(F)F)c1SC` [Example 2-86] the “Post-emergence action against ECHCG in %” value ([1]; dosage 5 g/ha) was 100%, the “Post-emergence action against ECHCG in %” value ([1]; dosage 20 g/ha) was 100% and the “Pre-emergence action against ABUTH (herbicidal activity)” value [2] was 100%. The “Pre-emergence action against ABUTH (herbicidal activity in percent)” value [2] was 100%, the “Pre-emergence action against VIOTR in %” value ([3]; dosage 80 g/ha) was 100% and the “Pre-emergence action against SETVI in %” value ([4]; dosage 80 g/ha) was 100%. The “Post-emergence action against SETVI in %” value ([5]; dosage 5 g/ha) was 100%, the “Post-emergence action against SETVI in %” value ([5]; dosage 20 g/ha) was 100% and the “Pre-emergence action against AMARE in %” value [6, 21] was 100%. The “Pre-emergence action against AMARE in %” value [6, 22] was 100%, the “Pre-emergence action against AVEFA in %” value [7] was 90% and the “Pre-emergence action against MATIN in %” value ([8]; dosage 20 g/ha) was 100%. For the same compound, the “Pre-emergence action against MATIN in %” value ([8]; dosage 80 g/ha) was 100%, the “Pre-emergence action against ALOMY (herbicidal activity)” value (“Pre-emergence action against ALOMY” for short) [9] was 90% and the “Post-emergence action against ABUTH in %” value ([10]; dosage 5 g/ha) was 80%. For the same compound, the “Post-emergence action against ABUTH in %” value ([10]; dosage 20 g/ha) was 100%, the “Post-emergence action at 20 g/ha against AMARE in %” value [11] was 100% and the “Pre-emergence action against VERPE in %” value [12] was 90%. For the same compound, the “Post-emergence action at 20 g/ha against AVEFA in %” value [13] was 80%, the “Post-emergence action against PHBPU in %” value ([14]; dosage 5 g/ha) was 80% and the “Post-emergence action against PHBPU in %” value ([14]; dosage 20 g/ha) was 90%. For the same compound, the “Pre-emergence action against PHBPU in %” value ([15]; dosage 20 g/ha) was 80%, the “Pre-emergence action against PHBPU in %” value ([15]; dosage 80 g/ha) was 90% and the “Post-emergence action against MATIN in %” value ([16]; dosage 5 g/ha) was 80%. For the same compound, the “Post-emergence action against MATIN in %” value ([16]; dosage 20 g/ha) was 90%, the “Post-emergence action against VIOTR in %” value ([17]; 5 g/ha) was 100% and the “Post-emergence action against VIOTR in %” value ([17]; 20 g/ha) was 100%. The “Pre-emergence action against ECHCG in %” value ([18]; 20 g/ha) was 80%, the “Pre-emergence action against ECHCG in %” value ([18]; 80 g/ha) was 100% and the “Post-emergence action against ALOMY in %” value [19] was 80%.
`CCn1nnnc1NC(=O)c1ccc(C(F)F)c(C(=O)NCC(F)F)c1SC` [Example 2-92] was tested, and the “Post-emergence action against ECHCG in %” value ([1]; dosage 5 g/ha) was 80%, the “Post-emergence action against ECHCG in %” value ([1]; dosage 20 g/ha) was 100% and the “Pre-emergence action against ABUTH (herbicidal activity)” value [2] was 100%. The “Pre-emergence action against ABUTH (herbicidal activity in percent)” value [2] was 100%, the “Pre-emergence action against VIOTR in %” value ([3]; dosage 20 g/ha) was 90% and the “Pre-emergence action against VIOTR in %” value ([3]; dosage 80 g/ha) was 100%. The “Pre-emergence action against SETVI in %” value ([4]; dosage 20 g/ha) was 100%, the “Pre-emergence action against SETVI in %” value ([4]; dosage 80 g/ha) was 100% and the “Post-emergence action against SETVI in %” value ([5]; dosage 5 g/ha) was 80%. The “Post-emergence action against SETVI in %” value ([5]; dosage 20 g/ha) was 100%, the “Pre-emergence action against AMARE in %” value [6, 21] was 100% and the “Pre-emergence action against AMARE in %” value [6, 22] was 100%. The “Pre-emergence action against AVEFA” value ([7]; 20 g/ha, scored visually after 3 weeks, 100% = plants have died, 0% = like control plants) was 80%, the “Pre-emergence action against AVEFA in %” value [7] was 80% and the “Pre-emergence action against MATIN in %” value ([8]; dosage 20 g/ha) was 100%. For the same compound, the “Pre-emergence action against MATIN in %” value ([8]; dosage 80 g/ha) was 100%, the “Pre-emergence action against ALOMY” value [9] was 90% and the “Post-emergence action against ABUTH in %” value ([10]; dosage 5 g/ha) was 80%. The “Post-emergence action against ABUTH in %” value ([10]; dosage 20 g/ha) was 90%, the “Post-emergence action at 20 g/ha against AMARE in %” value [11] was 100% and the “Pre-emergence action against VERPE in %” value [12] was 100%. The “Post-emergence action against VERPE in %” value [20] was 90%, the “Post-emergence action at 20 g/ha against AVEFA in %” value [13] was 80% and the “Post-emergence action against PHBPU in %” value ([14]; dosage 20 g/ha) was 90%. The “Pre-emergence action against PHBPU in %” value ([15]; dosage 80 g/ha) was 90%, the “Post-emergence action against MATIN in %” value ([16]; dosage 20 g/ha) was 80% and the “Post-emergence action against VIOTR in %” value ([17]; 5 g/ha) was 100%. The “Post-emergence action against VIOTR in %” value ([17]; 20 g/ha) was 100%, the “Pre-emergence action against ECHCG in %” value ([18]; 80 g/ha) was 100% and the “Post-emergence action against ALOMY in %” value [19] was 80%.
In the case of `CCn1nnnc1NC(=O)c1ccc(C(F)F)c(C(=O)NC(C)C2CC2)c1SC` (stereo not shown) [Example 2-351], the “Post-emergence action against ECHCG in %” value ([1]; dosage 5 g/ha) was 100%, the “Post-emergence action against ECHCG in %” value ([1]; dosage 20 g/ha) was 100% and the “Pre-emergence action against ABUTH (herbicidal activity)” value [2] was 100%. For the same compound, the “Pre-emergence action against ABUTH (herbicidal activity in percent)” value [2] was 80%, the “Pre-emergence action against VIOTR in %” value ([3]; dosage 20 g/ha) was 100% and the “Pre-emergence action against VIOTR in %” value ([3]; dosage 80 g/ha) was 100%. For the same compound, the “Pre-emergence action against SETVI in %” value ([4]; dosage 80 g/ha) was 100%, the “Pre-emergence action against AMARE in %” value [6, 21] was 100% and the “Pre-emergence action against AMARE in %” value [6, 22] was 100%. For the same compound, the “Pre-emergence action against AVEFA in %” value [7] was 80%, the “Pre-emergence action against MATIN in %” value ([8]; dosage 20 g/ha) was 100% and the “Pre-emergence action against MATIN in %” value ([8]; dosage 80 g/ha) was 100%. The “Pre-emergence action against ALOMY” value [9] was 80%, the “Post-emergence action against ABUTH in %” value ([10]; dosage 20 g/ha) was 80% and the “Post-emergence action at 20 g/ha against AMARE in %” value [11] was 100%. The “Pre-emergence action against VERPE in %” value [12] was 100%, the “Post-emergence action against VERPE in %” value [20] was 90% and the “Post-emergence action at 20 g/ha against AVEFA in %” value [13] was 80%. For the same compound, the “Post-emergence action against PHBPU in %” value ([14]; dosage 20 g/ha) was 90%, the “Pre-emergence action against PHBPU in %” value ([15]; dosage 80 g/ha) was 80% and the “Post-emergence action against MATIN in %” value ([16]; dosage 20 g/ha) was 80%. For the same compound, the “Post-emergence action against VIOTR in %” value ([17]; 5 g/ha) was 100%, the “Post-emergence action against VIOTR in %” value ([17]; 20 g/ha) was 100% and the “Pre-emergence action against ECHCG in %” value ([18]; 80 g/ha) was 100%. The “Post-emergence action against ALOMY in %” value [19] was 80%.
